Source: US7495147B2, “Neuregulin-1 transgenic mouse and methods of use” (deCODE genetics ehf., priority 2000, dated 2009)

Test system: NRG1TM hypomorphic mice
Assay: open field test of locomotor activity in NRG1TM hypomorphic mice and litter-mate controls
Type: in vivo, mouse
Conditions: litter-mate control (wild-type) mice; clozapine 1 mg/kg i.p. 25 min prior to testing
Protocol: Male NRG1TM hypomorphs, ErbB4 hypomorphs and litter-mate controls for each line were bred at Charles River Laboratories USA by crossing to a C57B16 background. They were shipped to the testing laboratory at PsychoGenics Inc. NY, USA (six weeks prior to behavioral testing) where they were housed in groups of 3-5 related mice per cage. The open field study was conducted when the male mice were 5 to 6 months of age. Group housed mice were brought into the experimental room and allowed to acclimate for one hour prior to testing. Each mouse was placed for 30 minutes in a square open field box (17×17×12 inch). Up to eight animals were tested at one time, one animal in each of eight arenas, under low lighting conditions (provided by a 15 watt red lamp). The automated infrared beam array system measured locomotion in the center and periphery of the test arena. Activity data were collected in 5 min intervals over the 30 min open field session and analyzed with a series of repeated measures analysis of variance (ANOVA) with session interval as a within-subject factor and genotype as a between-subject factor. Clozapine (1 mg/kg in 1% Tween 20, pH 6.0) was injected intraperitoneally (i.p.) 25 min before behavioral testing. Total activity data from the study with clozapine were analyzed with a two-tailed, Student's t-test. Naïve mice were used for these experiments. […]

## CN1CCN(C2=Nc3cc(Cl)ccc3Nc3ccccc32)CC1 [Clozapine, clozapine]
  open field activity of litter-mate control mice: no effect
